Test results as given in US20080027145A1, “Therapeutic Molecules and Methods for Generating and/or Selecting Same” (priority 2004, published 2008).
pIC50: −log10 of the molar value.

Experiments:
[1] = tested on: pro-survival proteins (Bcl-2, Bcl-xL, Bcl-w, Mcl-1, A1); experiment: Solution competition assay, statements spanning several pro-survival proteins; assay type: binding, human and mouse; conditions: Bcl-2, Bcl-xL, Bcl-w, Mcl-1, A1
Experimental: (§1) The relative affinities of BH3 peptides for pro-survival Bcl-2 proteins were assessed by comparing their abilities to compete with immobilized ^wtBimBH3 peptide for binding to Bcl-2-like proteins (Wilson-Annan et al., Supra). A fixed sub-saturating amount (10 nM) of a pro-survival Bcl-2 protein was incubated with varying amounts of competitor BH3 peptide in HBS for >2 hr on ice. The mixtures were then injected over a sensor chip containing a channel bearing mouse ^wtBimBH3 and a control channel with mouse ^4EBimBH3 immobilized. The baseline response (control channel) was subtracted to obtain the absolute binding response. Taking the response for the pro-survival protein alone as the maximal response (100%), the relative residual binding (%) in the presence of increasing amounts of competitor peptides at a given injection time point (430 s) was then calculated. […] Theoretically, IC50=[A]/2+KD, where [A] is the analyte concentration.
(§2) Some of recombinant proteins (Bcl-2, Bcl-xL, A1) studied contain cysteine residues but the behavior of Bcl-2 or Bcl-xL was not affected by dithiothreitol (DTT).
(§3) To assess if other BH3 peptides bind pro-survival proteins similarly, we directly compared their binding affinities in solution using a competitive binding assay. In such assays, the quality and absolute quantity of target proteins are less critical than in direct binding, and solution binding precludes the steric hindrance encountered with some immobilized peptides. FIG. 1C illustrates the approach: pre-incubation of Bcl-xL in solution with increasing amounts of BikBH3 reduced its binding to ^wtBimBH3 (FIG. 1D). From the attenuation in binding, the IC50 (competitor peptide concentration that halves binding) of BikBH3 can be calculated (FIG. 1E). As the IC50 values reflect relative binding affinities (see Experimental Procedures), we used this assay to compare the binding affinities of eight BH3 peptides (Table 3) to the five pro-survival proteins. […] Their binding properties fell into several classes (FIG. 2B and FIG. 4). […] Contrary to the prevailing view, the pro-survival proteins also had unique patterns for BH3 binding: Bcl-xL behaved like Bcl-w, with Bcl-2 more distinct, whereas Mcl-1 and A1 formed a separate group (FIG. 2B).

Mcl-1 = molecular target: T1, Mcl-1 (Mus musculus, UniProt P97287); experiment: Solution competition assay (competition with immobilized wtBimBH3, biosensor); assay type: binding; conditions: Mcl-1
T1 construct: mouse Mcl-1 (Acc. no. NP_031588; residues 152-308); GST (N, cleaved yes); made in house
T1 sequence (P97287 152-308): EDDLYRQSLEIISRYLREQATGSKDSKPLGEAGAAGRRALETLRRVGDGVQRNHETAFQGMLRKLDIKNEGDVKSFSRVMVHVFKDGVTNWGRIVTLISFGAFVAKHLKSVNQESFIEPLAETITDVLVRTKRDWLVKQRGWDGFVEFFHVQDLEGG
Experimental: as §1, §2, §3

Bcl-xL ΔC24 = molecular target: T2, Bcl-xL ΔC24 (Homo sapiens, UniProt Q07817); experiment: Direct binding to immobilized BH3 peptide, Biacore biosensor; conditions: BadBH3 or NoxaBH3 immobilized chip
T2 construct: Human Bcl-xL (Acc. no. NP_612815; residues 1-209); GST (N, cleaved yes); made in house
T2 sequence (Q07817 1-209): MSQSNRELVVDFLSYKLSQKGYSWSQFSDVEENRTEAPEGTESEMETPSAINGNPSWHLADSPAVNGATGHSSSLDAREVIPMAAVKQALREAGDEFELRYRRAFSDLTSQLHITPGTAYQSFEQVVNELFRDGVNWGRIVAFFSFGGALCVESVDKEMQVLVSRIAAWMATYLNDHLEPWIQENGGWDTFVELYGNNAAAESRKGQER
Experimental: (§4) Recombinant human Bcl-xL ΔC24, mouse Mcl-1 ΔN151 ΔC23 and mouse A1 ΔC20 were expressed as GST fusion proteins and cleaved off Glutathione Sepharose columns as described (Day et al., Cell Death Differ 6:1125-1132, 1999; Hinds et al., EMBO J 22:1497-1507, 2003).
(§5) Affinity measurements were performed at room temperature on a Biacore 3000 biosensor (Biacore) with HBS (10 mM HEPES pH 7.2, 150 mM NaCl, 3.4 mM EDTA, 0.005% Tween 20) as the running buffer. Mouse 26-mer ^wtBimBH3, ^4EBimBH3 mutant, BadBH3, NoxaBH3 or control irrelevant peptides were immobilized onto CM5 sensor chips using amine-coupling chemistry (Wilson-Annan et al., Supra). To assess the binding affinities of pro-survival Bcl-2-like proteins for BimBH3 directly, the proteins were directly injected into the sensor chip at 20 μl/min. Residual bound proteins were desorbed with 50 mM NaOH or 6 M GuHCl (pH 7.2), followed by two washes with running buffer. Binding kinetics were derived from sensorgrams, following subtraction of baseline responses, using BIA evaluation software (version 3, Biacore) (Wilson-Annan et al., Supra).
(§6) The binding constants of the pro-survival molecules for ^wtBimBH3, immobilized on sensor chip, were determined using biosensor experiments as described in Hinds et al., Supra; Wilson-Annan et al., Supra.

Bcl-w ΔC29 = molecular target: T3, Bcl-w ΔC29 (Homo sapiens, UniProt Q92843, A128E/C29S); experiment: as above; conditions: BadBH3 or NoxaBH3 immobilized chip
T3 construct: human Bcl-w (Acc. no. NP_004041; residues 1-164; C29S A128E); made in house
T3 sequence (Q92843 1-164 C29S/A128E): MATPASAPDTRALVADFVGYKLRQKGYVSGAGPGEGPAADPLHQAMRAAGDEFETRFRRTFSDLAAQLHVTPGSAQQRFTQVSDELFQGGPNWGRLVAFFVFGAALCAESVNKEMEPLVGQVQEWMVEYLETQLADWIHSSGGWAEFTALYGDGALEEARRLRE
Experimental: as §4, §5, §6

Bcl-2 ΔC22 = molecular target: T4, Bcl-2 ΔC22 (Homo sapiens, UniProt P10415); experiment: as above; conditions: BadBH3 or NoxaBH3 immobilized chip
T4 construct: Human Bcl-2 (Acc. no. NP_000624; residues 1-217); made in house
T4 sequence (P10415 1-217): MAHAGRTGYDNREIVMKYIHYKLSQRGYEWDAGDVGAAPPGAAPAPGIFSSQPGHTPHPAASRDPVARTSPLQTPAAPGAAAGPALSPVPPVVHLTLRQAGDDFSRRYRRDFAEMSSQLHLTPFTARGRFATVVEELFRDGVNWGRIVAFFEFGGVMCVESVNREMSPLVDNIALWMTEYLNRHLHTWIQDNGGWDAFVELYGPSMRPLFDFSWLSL
Experimental: as §4, §5, §6

A1 ΔC20 = molecular target: T5, A1 ΔC20 (Mus musculus, UniProt Q07440); experiment: as above; conditions: BadBH3 or NoxaBH3 immobilized chip
T5 construct: mouse A1 (Acc. no. NP_033872; residues 1-152); GST (N, cleaved yes); made in house
T5 sequence (Q07440 1-152): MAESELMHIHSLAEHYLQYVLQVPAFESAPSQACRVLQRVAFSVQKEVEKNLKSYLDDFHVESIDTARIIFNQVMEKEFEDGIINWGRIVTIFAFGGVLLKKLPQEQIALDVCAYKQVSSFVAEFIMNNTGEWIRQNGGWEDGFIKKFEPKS
Experimental: as §4, §5, §6

Mcl-1 ΔN151 ΔC23 = molecular target: T6, Mcl-1 ΔN151 ΔC23 (Mus musculus, UniProt P97287); experiment: as above; conditions: BadBH3 or NoxaBH3 immobilized chip
T6 construct: mouse Mcl-1 (Acc. no. NP_031588; residues 152-308); GST (N, cleaved yes); made in house
T6 sequence (P97287 152-308): as the sequence (P97287 152-308) above
Experimental: as §4, §5, §6

- pIC50 (Mcl-1): < 4.00
- binding of Bcl-xL to immobilized peptide (Bcl-xL ΔC24): avidly
- binding of Bcl-w to immobilized peptide (Bcl-w ΔC29): avidly
- binding of Bcl-2 to immobilized peptide (Bcl-2 ΔC22): avidly
- binding of A1 to immobilized peptide (A1 ΔC20): no affinity
- binding of Mcl-1 to immobilized peptide (Mcl-1 ΔN151 ΔC23): no affinity
Structure (SMILES): CSCC[C@H](NC(=O)[C@H](CCCNC(=N)N)NC(=O)[C@H](CCCNC(=N)N)NC(=O)[C@H](CC(C)C)NC(=O)[C@H](CCC(=O)O)NC(=O)[C@H](CCCNC(=N)N)NC(=O)CNC(=O)[C@H](Cc1ccc(O)cc1)NC(=O)[C@H](CCCNC(=N)N)NC(=O)[C@H](CCC(N)=O)NC(=O)[C@H](C)NC(=O)[C@H](C)NC(=O)[C@H](Cc1c[nH]c2ccccc12)NC(=O)[C@H](CC(C)C)NC(=O)[C@@H](N)CC(N)=O)C(=O)N[C@@H](CO)C(=O)N[C@@H](CC(=O)O)C(=O)N[C@@H](CCC(=O)O)C(=O)N[C@@H](Cc1ccccc1)C(=O)N[C@H](C(=O)N[C@@H](CC(=O)O)C(=O)N[C@@H](CO)C(=O)N[C@@H](Cc1ccccc1)C(=O)N[C@@H](CCCCN)C(=O)N[C@@H](CCCCN)C(=O)NCC(=O)O)C(C)C [BadBH3]
- binding preference among pro-survival proteins [1]: strongly preferred Bcl-2, BCl-xL and Bcl-w
